The text below walks through data of ChEMBL document CHEMBL1132555, “Tyrosine kinase inhibitors. 16. 6,5,6-tricyclic benzothieno[3, 2-d]pyrimidines and pyrimido[5,4-b-] and -[4,5-b]ĭndoles as potent inhibitors of the epidermal growth factor receptor tyrosine kinase” (J Med Chem, 1999).

Assay [1] addresses T1, Epidermal growth factor receptor (Homo sapiens, UniProt P00533).
Description: Concentration needed to inhibit the phosphorylation of a 14-residue fragment of phospholipase C-gamma1 by Epidermal growth factor receptor (prepared from human A431 carcinoma cell vesicles by immunoaffinity chromatography)
Assay [2] has as its target T1, Epidermal growth factor receptor. Briefly: Inhibition of Epidermal growth factor receptor autophosphorylation in A431 cells.
Assay [3] addresses Fibroblast growth factor receptor (Homo sapiens) (UniProt P22607+P11362+P22455+P21802). Briefly: Inhibition of Fibroblast growth factor receptor at 50 uM. The format is protein assay.
For assay [4], the target named is Insulin receptor (Homo sapiens) (UniProt P06213). Briefly: Inhibition against Insulin receptor kinase at 50 uM.
Assay [5] can be described thus: Inhibition of Platelet-derived growth factor receptor at 50 uM.
The target in assay [6] is Proto-oncogene tyrosine-protein kinase Src (Homo sapiens) (UniProt P12931). Briefly: Inhibition against c-Src tyrosine kinase at 1.25 uM.
For assay [7], the target named is Protein kinase C (PKC) (Homo sapiens) (UniProt O94806+P41743+P17252+P05129+Q05655+P05771+Q05513+Q02156+P24723+Q15139+Q04759). Briefly: Inhibition of Protein kinase C at 50 uM. In kind it is protein assay.
For assay [8], the target named is Proto-oncogene tyrosine-protein kinase Src (Homo sapiens) (UniProt P12931). Briefly: Inhibition of c-Src tyrosine kinase at 50 uM.

pIC50: −log10 of the molar value.

Chain of Insulin receptor (Homo sapiens) (P06213 28-758 limits assumed): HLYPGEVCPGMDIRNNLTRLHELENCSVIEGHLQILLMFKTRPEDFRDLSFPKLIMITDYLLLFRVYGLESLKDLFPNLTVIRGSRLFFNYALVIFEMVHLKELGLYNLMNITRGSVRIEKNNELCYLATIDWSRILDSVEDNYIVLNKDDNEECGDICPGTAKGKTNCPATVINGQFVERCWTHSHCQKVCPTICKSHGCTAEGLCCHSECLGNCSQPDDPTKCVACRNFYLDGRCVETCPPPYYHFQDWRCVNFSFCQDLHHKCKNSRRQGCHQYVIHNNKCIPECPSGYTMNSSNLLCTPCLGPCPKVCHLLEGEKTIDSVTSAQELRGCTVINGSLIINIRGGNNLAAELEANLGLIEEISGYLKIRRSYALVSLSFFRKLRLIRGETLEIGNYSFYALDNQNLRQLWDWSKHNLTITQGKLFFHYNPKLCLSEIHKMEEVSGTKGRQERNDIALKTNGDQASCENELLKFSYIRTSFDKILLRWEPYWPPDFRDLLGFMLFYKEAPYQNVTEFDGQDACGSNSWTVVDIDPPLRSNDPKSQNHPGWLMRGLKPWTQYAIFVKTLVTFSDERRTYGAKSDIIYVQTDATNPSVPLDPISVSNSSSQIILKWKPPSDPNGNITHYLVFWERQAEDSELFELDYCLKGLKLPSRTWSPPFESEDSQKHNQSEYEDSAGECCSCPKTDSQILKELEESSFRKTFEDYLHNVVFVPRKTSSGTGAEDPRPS
Chain of Insulin receptor (Homo sapiens) (P06213 763-1382 limits assumed): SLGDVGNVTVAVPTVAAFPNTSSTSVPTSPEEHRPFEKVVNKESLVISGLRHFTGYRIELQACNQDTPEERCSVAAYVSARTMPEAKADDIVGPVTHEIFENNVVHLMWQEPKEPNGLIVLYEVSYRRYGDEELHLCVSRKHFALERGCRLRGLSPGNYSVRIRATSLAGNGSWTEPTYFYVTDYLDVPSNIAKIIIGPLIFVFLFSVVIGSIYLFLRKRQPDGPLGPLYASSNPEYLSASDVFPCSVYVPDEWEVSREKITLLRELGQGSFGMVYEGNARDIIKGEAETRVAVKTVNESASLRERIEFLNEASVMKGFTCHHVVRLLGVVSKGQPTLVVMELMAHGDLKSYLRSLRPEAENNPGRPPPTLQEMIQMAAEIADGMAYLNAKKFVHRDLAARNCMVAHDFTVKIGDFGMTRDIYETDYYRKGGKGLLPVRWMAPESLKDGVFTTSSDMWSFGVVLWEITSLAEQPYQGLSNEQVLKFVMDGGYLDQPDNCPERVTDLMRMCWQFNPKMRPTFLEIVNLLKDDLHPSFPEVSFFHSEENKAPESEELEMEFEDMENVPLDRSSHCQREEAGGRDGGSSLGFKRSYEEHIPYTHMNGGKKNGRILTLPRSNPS
T1 sequence (P00533 whole entry): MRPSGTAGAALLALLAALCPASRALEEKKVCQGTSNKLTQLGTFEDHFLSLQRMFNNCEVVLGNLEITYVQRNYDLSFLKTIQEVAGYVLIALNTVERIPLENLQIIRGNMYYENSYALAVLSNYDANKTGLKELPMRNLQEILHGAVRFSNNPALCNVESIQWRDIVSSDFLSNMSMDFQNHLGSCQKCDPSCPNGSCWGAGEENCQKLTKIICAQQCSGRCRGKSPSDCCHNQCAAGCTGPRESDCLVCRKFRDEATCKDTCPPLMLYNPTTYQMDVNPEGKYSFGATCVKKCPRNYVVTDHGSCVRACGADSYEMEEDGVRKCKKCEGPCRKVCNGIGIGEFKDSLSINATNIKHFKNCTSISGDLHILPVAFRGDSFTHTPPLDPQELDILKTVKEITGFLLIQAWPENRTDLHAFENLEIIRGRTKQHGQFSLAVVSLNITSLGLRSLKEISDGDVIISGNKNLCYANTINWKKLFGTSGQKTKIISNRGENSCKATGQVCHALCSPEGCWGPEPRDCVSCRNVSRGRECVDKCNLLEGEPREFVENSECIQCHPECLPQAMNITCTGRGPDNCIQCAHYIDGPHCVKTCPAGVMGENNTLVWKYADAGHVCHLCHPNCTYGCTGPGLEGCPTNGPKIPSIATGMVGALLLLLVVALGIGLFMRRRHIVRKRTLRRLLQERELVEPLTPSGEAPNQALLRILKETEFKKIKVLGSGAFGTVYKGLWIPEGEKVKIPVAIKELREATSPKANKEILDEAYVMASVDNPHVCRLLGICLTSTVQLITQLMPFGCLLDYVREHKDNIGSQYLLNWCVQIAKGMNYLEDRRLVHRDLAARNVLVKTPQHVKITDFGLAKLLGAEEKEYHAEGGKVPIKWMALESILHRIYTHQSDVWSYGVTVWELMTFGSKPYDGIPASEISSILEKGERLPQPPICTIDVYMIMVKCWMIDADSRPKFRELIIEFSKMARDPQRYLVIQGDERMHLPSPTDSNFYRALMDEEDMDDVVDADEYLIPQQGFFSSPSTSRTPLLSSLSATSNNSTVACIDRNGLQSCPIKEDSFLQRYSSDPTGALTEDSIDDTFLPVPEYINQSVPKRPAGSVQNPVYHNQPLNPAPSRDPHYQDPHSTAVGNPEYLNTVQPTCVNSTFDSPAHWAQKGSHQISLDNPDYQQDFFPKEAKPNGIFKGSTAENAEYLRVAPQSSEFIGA
Chain of Proto-oncogene tyrosine-protein kinase Src (Homo sapiens) (P12931 2-536 limits assumed): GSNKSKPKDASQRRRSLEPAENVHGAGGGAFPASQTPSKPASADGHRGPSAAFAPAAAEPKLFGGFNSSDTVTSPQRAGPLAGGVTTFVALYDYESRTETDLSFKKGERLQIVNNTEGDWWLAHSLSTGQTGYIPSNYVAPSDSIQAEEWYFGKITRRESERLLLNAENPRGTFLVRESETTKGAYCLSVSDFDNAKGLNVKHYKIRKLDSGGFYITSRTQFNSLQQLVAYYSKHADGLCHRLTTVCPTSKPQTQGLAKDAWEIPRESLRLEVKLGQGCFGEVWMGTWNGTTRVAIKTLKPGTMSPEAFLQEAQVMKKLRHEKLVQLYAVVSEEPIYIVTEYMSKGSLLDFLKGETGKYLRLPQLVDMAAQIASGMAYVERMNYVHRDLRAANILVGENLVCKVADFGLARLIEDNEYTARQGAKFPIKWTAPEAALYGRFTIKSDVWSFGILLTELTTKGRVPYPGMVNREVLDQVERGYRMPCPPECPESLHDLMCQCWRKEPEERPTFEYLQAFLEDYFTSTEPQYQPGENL

`O=[N+]([O-])c1ccc2sc3c(Nc4ccccc4)ncnc3c2c1` showed a pIC50 in assay [1] of 7.24.
Turning to `CN(C)CCNc1[nH]cnc2c3ccccc3nc1-2`, in assay [1], the pIC50 is below 4.00.
The same measure, in the same setting: under `Nc1ccc2c(c1)sc1c(Nc3cccc(Br)c3)ncnc12` stands 9.33.
Turning to `COc1ccc2[nH]c3ncnc(Nc4cccc(Br)c4)c3c2c1`, the figures for the pIC50 in assay [2] and in assay [1] were 7.89 and 8.92, respectively. In addition, the inhibition in assay [3] amounted to 30%; in assay [4], 0%; in assay [5] it was 2%; in assay [6] it was 8%.
`C[C@H](Nc1ncnc2c1sc1ccccc12)c1ccccc1`: the inhibition in assay [3] is 20%; in assay [4], 13%; in assay [5], 0%; in assay [7], 7%; in assay [8], 0%. The same compound showed a pIC50 in assay [1] of 6.27.
With `Nc1nc(Nc2cccc(Br)c2)c2c(n1)[nH]c1ccccc12`, the pIC50 is 6.31 in assay [2] and 6.83 in assay [1].
Taken in the same sequence, the figures for `Nc1cc2sc3c(Nc4cccc(Br)c4)ncnc3c2cc1F` were 7.38 and 9.00.
In the case of `COc1cccc2c1sc1c(Nc3cccc(Br)c3)ncnc12`, in assay [1], the pIC50 was 7.90.
In the case of `CNc1ccc2sc3c(Nc4cccc(Br)c4)ncnc3c2c1`, the pIC50 in assay [2] is 7.48; in assay [1] it was 8.96.
For the compound `Cc1cccc(Nc2ncnc3c2sc2ccc(N)cc23)c1`, the negative-log IC50 (pIC50) in assay [2] is 7.01; in assay [1], 8.68. Besides, the inhibition in assay [3] was found to be 24%; in assay [4], 14%; in assay [5] it was 17%; in assay [7], 44%; in assay [8] it was 47%.
In assay [1], `Brc1cccc(Nc2ncnc3cc4[nH]ccc4cc23)c1` gave a negative logarithm of the IC50 (pIC50) of 9.41.
In the case of `CN(C)CCNc1[nH]cnc2nc3ccccc3c1-2`, the pIC50 in assay [1] was below 5.00.
In the case of `O=[N+]([O-])c1cccc2c1sc1c(Nc3cccc(Br)c3)ncnc12`, the pIC50 in assay [1] is 6.80.
Regarding `Nc1ccc2sc3c(Nc4cccc(Br)c4)ncnc3c2c1`, the inhibition in assay [4] and in assay [7] was 0% throughout.
Regarding `CCNc1cc2sc3c(Nc4cccc(Br)c4)ncnc3c2cc1F`, the pIC50 in assay [2] is 7.07; in assay [1], 8.10.
In assay [1], `Clc1cccc(Nc2ncnc3c2sc2ncccc23)c1` had a pIC50 below 6.00.
Same read-out and setting: under `COc1cccc2sc3c(Nc4cccc(Br)c4)ncnc3c12` stands 7.70.
In the case of `Brc1cccc(Nc2ncnc3c2sc2ccccc23)c1`, the inhibition in assay [3] stood at 21%; in assay [4], 0%; in assay [5], 0%; in assay [7] it was 18%; in assay [8] it was 0%.
For `COc1ccc2c(c1)sc1c(Nc3cccc(Br)c3)ncnc12`, the inhibition stood at 19% in assay [3]; 0% in assay [4]; 21% in assay [5]; 20% in assay [7]; 22% in assay [8].
`Nc1cccc2c1sc1c(Nc3cccc(Br)c3)ncnc12` gave a pIC50 in assay [1] of 8.57.
In assay [1], `c1ccc2c(c1)[nH]c1c(NC3CCCCC3)ncnc12` showed a negative-log IC50 (pIC50) below 4.00.
For the compound `Cc1cccc(Nc2cc(NCCO)ncn2)c1`, the pIC50 in assay [1] is 9.00.
For `O=[N+]([O-])c1ccc2sc3c(Nc4cccc(C(F)(F)F)c4)ncnc3c2c1`, the negative-log IC50 (pIC50) in assay [1] is 6.34.
Turning to `Nc1ccc2sc3c(Nc4cccc(C(F)(F)F)c4)ncnc3c2c1`, the inhibition in assay [3] was 17%; in assay [4] it was 0%; in assay [5], 12%; in assay [7] it was 51%; in assay [8], 13%. For the same compound, in assay [1], the pIC50 was 7.33.
Turning to `COc1cc2sc3c(Nc4cccc(Br)c4)ncnc3c2cc1OC`, the pIC50 in assay [1] was 6.35.
Same read-out and setting: in the case of `Cc1nc(Nc2cccc(Br)c2)c2c(n1)[nH]c1ccccc12` it was below 5.00; in that of `O=[N+]([O-])c1ccc2c(c1)sc1c(Nc3cccc(Br)c3)ncnc12`, 7.32; in that of `Brc1cccc(Nc2ncnc3sccc23)c1`, 7.46.
In turn, `C[C@@H](Nc1[nH]cnc2c3ccccc3nc1-2)c1ccccc1` gave a pIC50 in assay [1] below 4.00.
Regarding `Cn1c2ccccc2c2c(Nc3cccc(Br)c3)ncnc21`, the values for the negative-log IC50 (pIC50) in assay [2] and in assay [1] were 6.11 and 6.13, respectively.
Compound `Cc1cccc(Nc2ncnc3c2sc2ccc([N+](=O)[O-])cc23)c1` showed a pIC50 in assay [1] of 7.96.
In turn, `CN(C)c1ccc2sc3c(Nc4cccc(Br)c4)ncnc3c2c1` gave a pIC50 in assay [1] of 7.70.
As to `c1ccc(CNc2ncnc3c2sc2ccccc23)cc1`, the inhibition in assay [3] was determined as 11%; in assay [4] it was 0%; in assay [5], 10%; in assay [8], 0%.
